This passage reports EC50 results from US8580832B2, “Substituted phenoxy aminothiazolones as estrogen related receptor-α modulators” (Janssen Pharmaceutica N.V., priority 2007, dated 2013).

The test concerns the target T1, ERR1 (also known as ERR-α or ERR-1) (Homo sapiens, UniProt P11474).
T1 construct: the ^6His-tagged-ERR1 LBD
T1 sequence (P11474 193-421 limits assumed): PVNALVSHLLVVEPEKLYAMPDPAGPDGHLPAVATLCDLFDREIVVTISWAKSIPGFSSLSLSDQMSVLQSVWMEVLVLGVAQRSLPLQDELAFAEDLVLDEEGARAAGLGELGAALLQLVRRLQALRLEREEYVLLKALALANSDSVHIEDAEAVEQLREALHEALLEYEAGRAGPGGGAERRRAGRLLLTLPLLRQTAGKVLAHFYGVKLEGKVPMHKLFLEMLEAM
As to the kind of experiment: TR-FRET assay: disruption of co-activator peptide binding to ERR1 LBD. In kind it is biochemical. The conditions noted are these: 6His-tagged ERR1 LBD 6 nM, GST-SRC-2 peptide 6 nM, 25° C., 4-18 hours; average of 3 independent experiments. Here is the method:
Time-Resolved Fluorescence Resonance Energy Transfer (TR-FRET) experiments were performed to examine the functional response of ERR1 (also known as ERR-α or ERR-1) ligands. The TR-FRET assay described herein relied on the conformation of ERR1 for binding to a co-activator peptide: when a test compound binds to ERR1 and alters its conformation, it can disrupt the binding of the co-activator peptide. The components of this homogeneous secondary assay included: the ^6His-tagged-ERR1 LBD, a GST-labeled-hSRC2 co-activator polypeptide and a fluorescent donor/acceptor pair from CIS bio international htrf/bioassays (Bedford, Mass.) using both an α-GST Europium Cryptate (Eu) label and an α^6His-XL665 (allophycocyanin) fluorophore.
For TR-FRET measurements, the reaction was buffered in 25 mM Tris pH 8, 2.5 mM Hepes, 20 mM KCl, 1 mM DTT, and 0.05 mg/mL BSA (-lipids). […] Reactions were allowed to reach equilibrium at 25° C. for 4-18 hours before collecting data on the Analyst from LJL Biosystems (Molecular Devices Sunnyvale, Calif.). […] Dose response curves were fitted using a hyperbolic equation and the data reported is the average of 3 independent experiments.

One may read the EC50 as the concentration needed to bring the measured effect to its halfway point. A low value points to greater potency. `COc1cc(/C=C2\SC(N3CCCC(O)C3)=NC2=O)ccc1Oc1ccc(C(F)(F)F)cc1C(F)(F)F` (centres unmarked) [Example 58, 5-[4-(2,4-Bis-trifluoromethyl-phenoxy)-3-methoxy-benzylidene]-2-(3-hydroxy-piperidin-1-yl)-thiazol-4-one] gave an EC50 of 24 nM.

`COC(=O)CNC1=NC(=O)/C(=C/c2ccc(Oc3ccc(C#N)cc3C(F)(F)F)c(OC)c2)S1` [Example 84, {5-[4-(4-Cyano-2-trifluoromethyl-phenoxy)-3-methoxy-benzylidene]-4-oxo-4,5-dihydro-thiazol-2-ylamino}-acetic acid methyl ester] yielded an EC50 of 7 nM. Compared with the last compound, the EC50 is about 3.4-fold lower.

Take `N#Cc1ccc(Oc2ccc(/C=C3\SC(NCCCN4CCCC4=O)=NC3=O)cc2F)c(C(F)(F)F)c1` [Example 51, 4-(2-Fluoro-4-{4-oxo-2-[3-(2-oxo-pyrrolidin-1-yl)-propylamino]-4H-thiazol-5-ylidenemethyl}-phenoxy)-3-trifluoromethyl-benzonitrile]: the midpoint of the response, the EC50, lay at 29 nM.

Take `COc1cc(/C=C2\SC(NCc3cccnc3)=NC2=O)ccc1Oc1ccc(C#N)cc1C(F)(F)F` [Compound 19, 4-(2-Methoxy-4-{4-oxo-2-[(pyridin-3-ylmethyl)-amino]-4H-thiazol-5-ylidenemethyl}-phenoxy)-3-trifluoromethyl-benzonitrile]: the EC50 is 18 nM.

As to `N#Cc1ccc(Oc2ccc(/C=C3\SC(N4CCNC(=O)C4)=NC3=O)cc2F)c(C(F)(F)F)c1` [Example 47, 4-{2-Fluoro-4-[4-oxo-2-(3-oxo-piperazin-1-yl)-4H-thiazol-5-ylidenemethyl]-phenoxy}-3-trifluoromethyl-benzonitrile], the EC50 came out at 19 nM.

In turn, `COc1cc(/C=C2\SC(N(C)CC(O)CO)=NC2=O)ccc1Oc1ccc(C#N)cc1Cl` (centres unmarked) [Example 65, 3-Chloro-4-(4-{2-[(2,3-dihydroxy-propyl)-methyl-amino]-4-oxo-4H-thiazol-5-ylidenemethyl}-2-methoxy-phenoxy)-benzonitrile] showed an EC50 of 89 nM.

With `COC(=O)c1ccc(Oc2ccc(/C=C3\SC(N4CCNC(=O)C4)=NC3=O)cc2OC)c(C(F)(F)F)c1` [Example 54, 4-{2-Methoxy-4-[4-oxo-2-(3-oxo-piperazin-1-yl)-4H-thiazol-5-ylidenemethyl]-phenoxy}-3-trifluoromethyl-benzoic acid methyl ester], the response was half-maximal at 74 nM (EC50). This EC50 and that of the compound before are within 1.5-fold of each other.

As for `COc1cc(/C=C2\SC(N(C)CC(O)CO)=NC2=O)ccc1Oc1ccc(C#N)cc1C(F)(F)F` (centres unmarked) [Compound 23, 4-(4-{2-[(2,3-Dihydroxy-propyl)-methyl-amino]-4-oxo-4H-thiazol-5-ylidenemethyl}-2-methoxy-phenoxy)-3-trifluoromethyl-benzonitrile], the midpoint of the response, the EC50, lay at 9 nM.

`CCS(=O)(=O)N1CCN(C2=NC(=O)/C(=C/c3ccc(Oc4ccc(C#N)cc4C(F)(F)F)c(F)c3)S2)CC1` [Example 44, 4-{4-[2-(4-Ethanesulfonyl-piperazin-1-yl)-4-oxo-4H-thiazol-5-ylidenemethyl]-2-fluoro-phenoxy}-3-trifluoromethyl-benzonitrile] gave an EC50 of 68 nM.

`CN1CCN(C2=NC(=O)/C(=C/c3ccc(Oc4ccc(C#N)cc4C(F)(F)F)c(F)c3)S2)CC1` [Compound 8, 4-{2-Fluoro-4-[2-(4-methyl-piperazin-1-yl)-4-oxo-4H-thiazol-5-ylidenemethyl]-phenoxy}-3-trifluoromethyl-benzonitrile] showed an EC50 of 14 nM.

`COc1cc(/C=C2\SC(NCCn3cncn3)=NC2=O)ccc1Oc1ccc(C#N)cc1C(F)(F)F` [Example 72, 4-{2-Methoxy-4-[4-oxo-2-(2-[1,2,4]triazol-1-yl-ethylamino)-4H-thiazol-5-ylidenemethyl]-phenoxy}-3-trifluoromethyl-benzonitrile] showed an EC50 of 16 nM.

Compound `N#Cc1ccc(Oc2ccc(/C=C3\SC(NCCF)=NC3=O)cc2F)c(C(F)(F)F)c1` [Example 96, 4-{2-Fluoro-4-[2-(2-fluoro-ethylamino)-4-oxo-4H-thiazol-5-ylidenemethyl]-2-fluoro-phenoxy}-3-trifluoromethyl-benzonitrile] came in with an EC50 of 25 nM.

Regarding `COc1cc(/C=C2\SC(NCCN3CCNC(=O)C3)=NC2=O)ccc1Oc1ccc(C#N)cc1C(F)(F)F` [Example 105, 4-(2-Methoxy-4-{4-oxo-2-[2-(3-oxo-piperazin-1-yl)-ethylamino]-4H-thiazol-5-ylidenemethyl}-phenoxy)-3-trifluoromethyl-benzonitrile], the midpoint of the response, the EC50, lay at 8 nM. This EC50 is about 3.1-fold lower than that of the compound before.

As for `COc1cc(/C=C2\SC(N3CCC(N(C)C)CC3)=NC2=O)ccc1Oc1ccc(C#N)cc1C(F)(F)F` [Example 86, 4-{4-[2-(4-Dimethylamino-piperidin-1-yl)-4-oxo-4H-thiazol-5-ylidenemethyl]-2-methoxy-phenoxy}-3-trifluoromethyl-benzonitrile], the EC50 amounted to 10 nM. This EC50 and that of the compound before are within 1.5-fold of each other.

`COc1cc(/C=C2\SC(NCc3cc(F)cc(F)c3)=NC2=O)ccc1Oc1ccc(C#N)cc1C(F)(F)F` [Example 85, 4-{4-[2-(3,5-Difluoro-benzylamino)-4-oxo-4H-thiazol-5-ylidenemethyl]-2-methoxy-phenoxy}-3-trifluoromethyl-benzonitrile]: the EC50 stood at 57 nM.

Turning to `COc1cc(/C=C2\SC(NCC(O)CN)=NC2=O)ccc1Oc1ccc(C#N)cc1C(F)(F)F` (centres unmarked) [Example 95, 4-{4-[2-(3-Amino-2-hydroxy-propylamino)-4-oxo-4H-thiazol-5-ylidenemethyl]-2-methoxy-phenoxy}-3-trifluoromethyl-benzonitrile], the EC50 was found to be 89 nM.

For the compound `N#Cc1ccc(Oc2ccc(/C=C3\SC(NCCN4CCNC(=O)C4)=NC3=O)cc2F)c(C(F)(F)F)c1` [Example 99, 4-(2-Fluoro-4-{4-oxo-2-[2-(3-oxo-piperazin-1-yl)-ethylamino]-4H-thiazol-5-ylidenemethyl}-phenoxy)-3-trifluoromethyl-benzonitrile], the EC50 is 18 nM. This EC50 is about 4.9-fold lower than that of the compound before.

Compound `COc1cc(/C=C2\SC(NCCCN(C)C)=NC2=O)ccc1Oc1ccc(C#N)cc1C(F)(F)F` [Compound 26, 4-{4-[2-(3-Dimethylamino-propylamino)-4-oxo-4H-thiazol-5-ylidenemethyl]-2-methoxy-phenoxy}-3-trifluoromethyl-benzonitrile] returned an EC50 of 13 nM.

Compound `N#Cc1ccc(Oc2ccc(/C=C3\SC(NCCC4CCOCC4)=NC3=O)cc2F)c(C(F)(F)F)c1` [Example 110, 4-(2-Fluoro-4-{4-oxo-2-[2-(tetrahydro-pyran-4-yl)-ethylamino]-4H-thiazol-5-ylidenemethyl}-phenoxy)-3-trifluoromethyl-benzonitrile] gave a 50% effective concentration (EC50) of 26 nM.

On to `COc1cc(/C=C2\SC(NCCOCCO)=NC2=O)ccc1Oc1ccc(C#N)cc1C(F)(F)F` [Example 69, 4-(4-{2-[2-(2-Hydroxy-ethoxy)-ethylamino]-4-oxo-4H-thiazol-5-ylidenemethyl}-2-methoxy-phenoxy)-3-trifluoromethyl-benzonitrile], for which the EC50 was 17 nM.

As for `COc1cc(/C=C2\SC(N(CCO)CCO)=NC2=O)ccc1Oc1ccc(C#N)cc1C(F)(F)F` [Compound 12, 4-(4-{2-[Bis-(2-hydroxy-ethyl)-amino]-4-oxo-4H-thiazol-5-ylidenemethyl}-2-methoxy-phenoxy)-3-trifluoromethyl-benzonitrile], the response was half-maximal at 25 nM (EC50).

The compound `COc1cc(/C=C2\SC(NCC3CNCCO3)=NC2=O)ccc1Oc1ccc(C#N)cc1C(F)(F)F` (centres unmarked) [Example 80, 4-(2-Methoxy-4-{2-[(morpholin-2-ylmethyl)-amino]-4-oxo-4H-thiazol-5-ylidenemethyl}-phenoxy)-3-trifluoromethyl-benzonitrile] had an EC50 of 35 nM. The EC50 values of the last two compounds are within 1.5-fold of each other.

Compound `COc1cc(/C=C2\SC(NC[C@@H](O)CO)=NC2=O)ccc1Oc1ccc(C#N)cc1C(F)(F)F` [Example 34, 4-{4-[2-(2R,3-Dihydroxy-propylamino)-4-oxo-4H-thiazol-5-ylidenemethyl]-2-methoxy-phenoxy}-3-trifluoromethyl-benzonitrile] displayed an EC50 of 19 nM.

`CCS(=O)(=O)N1CCN(C2=NC(=O)/C(=C/c3ccc(Oc4ccc(C#N)cc4C(F)(F)F)c(OC)c3)S2)CC1` [Example 38, 4-{4-[2-(4-Ethanesulfonyl-piperazin-1-yl)-4-oxo-4H-thiazol-5-ylidenemethyl]-2-methoxy-phenoxy}-3-trifluoromethyl-benzonitrile]: the EC50 is 9 nM.

For `COc1cc(/C=C2\SC(N3CC(C(=O)O)C3)=NC2=O)ccc1Oc1ccc(C#N)cc1C(F)(F)F` [Example 106, 1-{5-[4-(4-Cyano-2-trifluoromethyl-phenoxy)-3-methoxy-benzylidene]-4-oxo-4,5-dihydro-thiazol-2-yl}-azetidine-3-carboxylic acid], the EC50 was found to be 3 nM.

In turn, `N#Cc1ccc(Oc2ccc(/C=C3\SC(NC4CC4)=NC3=O)cc2F)c(C(F)(F)F)c1` [Compound 10, 4-[4-(2-Cyclopropylamino-4-oxo-4H-thiazol-5-ylidenemethyl)-2-fluoro-phenoxy]-3-trifluoromethyl-benzonitrile] registered an EC50 of 52 nM.
